The test system of test [1] is human breast cancer cell line SK-BR-3. In words: Cell growth inhibition assay (MTT), SK-BR-3. The test is classed as cell-based. Conditions: Homo sapiens, read-out: GI50 value (50% growth inhibitory concentration). Here is the method:
(§1) A cell growth inhibition assay was performed using two types of cells (human breast cancer cell line SK-BR-3 and human lung cancer cell line NCI-H460).
(§2) Cells of each type were suspended in a medium and seeded into a 96-well multi-well plate at 500 cells/150 μl/well. The test compound was dissolved in DMSO, and this was diluted with medium to prepare a sample solution (DMSO concentration: 0.5% or less). On the day following the seeding, 50 μL of DMSO-containing medium to which the test compound was not added (hereinafter called DMSO diluted solution; DMSO concentration: 0.5% or less) or the sample solution was added to the cells. An MTT assay was performed immediately after and 72 hours after adding the sample solution or the DMSO diluted solution to the cells. The MTT assay was performed as follows.
(§3) 5 mg/mL of an MTT (3-(4,5-dimethylthiazol-2-yl)-2,5-diphenyltetrazolium bromide) solution was added at 20 μL per well. Thereafter, the plate was incubated at 37° C. in 5% CO2 for four hours. The plate was centrifuged at 1200 rpm for five minutes, and then the culture supernatant was removed by suction using a dispenser. DMSO was added at 150 μL per well, and the generated formazan was dissolved. The plate was stirred using a plate mixer to uniformly color the respective wells. The absorbance of each well was measured using a plate reader at an OD of 540 nm with a reference of 660 nm.
(§4) T/C (%) for each concentration was determined by the following calculation formula and a dose-response curve was drawn to calculate the 50% growth inhibitory concentration (GI50 value), based on the assumption that the OD value measured immediately after adding the sample solution was S, the OD value measured 72 hours after adding the sample solution was T, and the OD value measured 72 hours after adding the DMSO diluted solution was C. T/C(%)=(T−S)/(C−S)×100

Test [2] concerns human lung cancer cell line NCI-H460. In words: Cell growth inhibition assay (MTT), NCI-H460. It is filed as cell-based. The conditions noted are these: Homo sapiens, read-out: GI50 value (50% growth inhibitory concentration). The procedure: as §1, §2, §3, §4
Test [3] addresses T1, recombinant yeast Hsp90 protein (rHsp90) (Saccharomyces cerevisiae, UniProt P02829).
T1 construct: made in house; host or cells: Escherichia coli
Put plainly: Hsp90 ATPase assay. The test is classed as biochemical. Conditions: rHsp90 100 μg/mL, ATP 100 μM, 37° C., two hours, BIOMOL GREEN; read-out: IC50 value (concentration for 50% inhibition of ATP activity). The procedure:
An Hsp90 ATPase assay was performed using a recombinant yeast Hsp90 protein (hereinafter called rHsp90). Yeast Hsp90 DNA was cloned from a yeast genomic DNA library according to a conventional method. The cloned yeast Hsp90 DNA was incorporated into a plasmid for expression in Escherichia coli, and the plasmid was expressed in Escherichia coli to obtain rHsp90.
The test compound was dissolved in DMSO to 10 mM. The dissolved solution was diluted with DMSO to eight concentrations ranging in three-fold dilutions from 4 mM. Each diluted solution was further 10-fold diluted with an assay buffer (100 mM Tris, pH 7.4, 20 mM KCl, 6 mM MgCl2) (concentration of each test compound solution: 400 μM, 133 μM, 44.4 μM, 14.8 μM, 4.94 μM, 1.65 μM, 0.549 μM, 0.183 μM; DMSO concentration: 10%).
rHsp90 was dissolved in a TE buffer (20 mM Tris, pH 7.4, 1 mM EDTA) to a concentration of 2.531 mg/mL. The dissolved solution was diluted with assay buffer to 125 μg/mL and dispensed to a 96-well assay plate at 40 μL per well (final concentration: 100 μg/mL).
The test compound solution was dispensed at 5 μL per well, and then the solutions in the respective wells were mixed using a plate mixer. 100 mM ATP (Sigma, Catalog No. A-7699) was diluted with assay buffer to 1 mM and dispensed at 5 μL per well (final concentration: 100 μM). The solutions in the respective wells were mixed using a plate mixer, and then the assay plate was allowed to stand in an incubator set at 37° C. for two hours.
BIOMOL GREEN Reagent (BIOMOL, Catalog No. AK-111) was dispensed at 100 μL per well, and the reaction was terminated. The solutions in the respective wells were mixed by pipetting (three times), and then 34% sodium citrate was dispensed at 10 μL per well. The solutions in the respective wells were mixed by pipetting (three times), and then the assay plate was left to stand at room temperature for 10 minutes. The absorbance at 630 nm of each well was measured with a microplate reader.
The ratio of the absorbance of the test compound-added group to the absorbance of the test compound-free group (T/C value) was determined by the following calculation formula, based on the assumption that the absorbance of the well to which the test compound and rHsp90 were added was A, the absorbance of the well to which only rHsp90 was added was B, and the absorbance of the well to which neither the test compound nor rHsp90 was added was C. T/C=(A−C)/(B−C)
Further, the concentration for 50% inhibition of ATP activity (IC50 value) was calculated using GraphPad Prism 4 (GraphPad Software, Inc.).

Structures can show the parent of a compound that is named as a salt. Where two headings read alike, the source gives them in different places.

T1 sequence (P02829 whole entry): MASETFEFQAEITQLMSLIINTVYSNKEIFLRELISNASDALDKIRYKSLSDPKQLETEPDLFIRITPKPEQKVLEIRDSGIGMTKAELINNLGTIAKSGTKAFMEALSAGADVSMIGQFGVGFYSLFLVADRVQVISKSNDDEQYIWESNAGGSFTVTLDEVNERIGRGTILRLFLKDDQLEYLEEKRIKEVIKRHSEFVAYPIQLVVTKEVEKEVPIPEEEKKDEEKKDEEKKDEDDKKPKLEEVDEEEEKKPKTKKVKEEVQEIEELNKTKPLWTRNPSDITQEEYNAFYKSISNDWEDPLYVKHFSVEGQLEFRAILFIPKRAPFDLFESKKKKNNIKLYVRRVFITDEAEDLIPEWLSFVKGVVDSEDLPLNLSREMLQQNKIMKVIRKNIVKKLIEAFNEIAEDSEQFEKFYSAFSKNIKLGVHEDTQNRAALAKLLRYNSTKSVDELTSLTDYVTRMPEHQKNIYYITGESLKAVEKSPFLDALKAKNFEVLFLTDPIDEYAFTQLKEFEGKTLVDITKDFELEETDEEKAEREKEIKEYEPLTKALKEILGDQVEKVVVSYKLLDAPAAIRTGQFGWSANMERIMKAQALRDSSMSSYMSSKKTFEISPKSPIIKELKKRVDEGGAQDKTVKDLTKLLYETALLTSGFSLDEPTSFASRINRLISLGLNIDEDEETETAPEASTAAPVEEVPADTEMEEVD

`COc1c(C)cnc(Cn2nc3c4c(nc(N)nc42)SCC(NC(C)=O)C3)c1C` (stereo not drawn) [Example 43, N-{4-Amino-2-[(4-methoxy-3,5-dimethylpyridin-2-yl)methyl]-2,7,8,9-tetrahydro-6-thia-1,2,3,5-tetraazabenzo[cd]azulen-8-yl}acetamide]: the GI50 amounted to 91 nM in test [1] (SK-BR-3, MTT assay, 72 hours) and 253 nM in test [2] (NCI-H460, MTT assay, 72 hours). In test [3], the IC50 was 1400 nM.
For `COc1c(C)cnc(Cn2nc3c4c(nc(N)nc42)SCC(NC2CC2)C3)c1C` (stereo not drawn) [Example 51, N^8-Cyclopropyl-2-[(4-methoxy-3,5-dimethylpyridin-2-yl)methyl]-2,7,8,9-tetrahydro-6-thia-1,2,3,5-tetraazabenzo[cd]azulene-4,8-diamine hydrochloride], the GI50 in test [1] (SK-BR-3, MTT assay, 72 hours) was found to be 58 nM; in test [2] (NCI-H460, MTT assay, 72 hours), 150 nM. Besides, the IC50 in test [3] came out at 2400 nM.
In the same order, the values of `COc1c(C)cnc(Cn2nc3c4c(nc(N)nc42)SCC(N2CCC[C@H]2C(N)=O)C3)c1C` (stereo partly drawn) [Example 67, 1-{4-Amino-2-[(4-methoxy-3,5-dimethylpyridin-2-yl)methyl]-2,7,8,9-tetrahydro-6-thia-1,2,3,5-tetraazabenzo[cd]azulen-8-yl}-L-prolinamide] are 130 nM, 300 nM and 1200 nM.
For the molecule `COc1c(C)cnc(Cn2nc3c4c(nc(N)nc42)SCC(N(C)C(C)=O)C3)c1C` (stereo not drawn) [Example 99, N-{4-Amino-2-[(4-methoxy-3,5-dimethylpyridin-2-yl)methyl]-2,7,8,9-tetrahydro-6-thia-1,2,3,5-tetraazabenzo[cd]azulen-8-yl}-N-methylacetamide], the GI50 in test [1] (SK-BR-3, MTT assay, 72 hours) came out at 320 nM; in test [2] (NCI-H460, MTT assay, 72 hours), 650 nM. The IC50 in test [3] turned out to be 820 nM.
Take `COc1c(C)cnc(Cn2nc3c4c(nc(N)nc42)SCC(CCO)=C3)c1C` [Example 111, 2-{4-Amino-2-[(4-methoxy-3,5-dimethylpyridin-2-yl)methyl]-2,7-dihydro-6-thia-1,2,3,5-tetraazabenzo[cd]azulen-8-yl}ethanol]: the GI50 in test [1] (SK-BR-3, 72 h) turned out to be 49 nM; in test [2] (NCI-H460, 72 h), 94 nM. For the same molecule, the IC50 in test [3] was determined as 810 nM.
As to `COc1c(C)cnc(Cn2nc3c4c(nc(N)nc42)SCC(CC(N)=O)=C3)c1C` [Example 115, 2-{4-Amino-2-[(4-methoxy-3,5-dimethylpyridin-2-yl)methyl]-2,7-dihydro-6-thia-1,2,3,5-tetraazabenzo[cd]azulen-8-yl}acetamide], the GI50 in test [1] (SK-BR-3, MTT assay, 72 hours) was determined as 77 nM; in test [2] (NCI-H460, MTT assay, 72 hours), 194 nM. The IC50 in test [3] came to 740 nM.
In the same order, the values of `CNC(=O)CC1=Cc2nn(Cc3ncc(C)c(OC)c3C)c3nc(N)nc(c23)SC1` [Example 116, 2-{4-Amino-2-[(4-methoxy-3,5-dimethylpyridin-2-yl)methyl]-2,7-dihydro-6-thia-1,2,3,5-tetraazabenzo[cd]azulen-8-yl}-N-methylacetamide] are 37 nM, 89 nM and 1100 nM.
Consider `CCNC(=O)CC1=Cc2nn(Cc3ncc(C)c(OC)c3C)c3nc(N)nc(c23)SC1` [Example 118, 2-{4-Amino-2-[(4-methoxy-3,5-dimethylpyridin-2-yl)methyl]-2,7-dihydro-6-thia-1,2,3,5-tetraazabenzo[cd]azulen-8-yl}-N-ethylacetamide], for which the GI50 in test [1] (SK-BR-3, 72 h) came out at 33 nM; in test [2] (NCI-H460, 72 h) it was 510 nM. Further, in test [3], the IC50 came out at 610 nM.
Consider `COc1c(C)cnc(Cn2nc3c4c(nc(N)nc42)SCC(CC(=O)N2CCC2)=C3)c1C` [Example 123, 8-(2-Azetidin-1-yl-2-oxoethyl)-2-[(4-methoxy-3,5-dimethylpyridin-2-yl)methyl]-2,7-dihydro-6-thia-1,2,3,5-tetraazabenzo[cd]azulen-4-amine], for which the GI50 turned out to be 38 nM in test [1] (SK-BR-3, MTT assay, 72 hours) and 71 nM in test [2] (NCI-H460, MTT assay, 72 hours). The IC50 in test [3] turned out to be 630 nM.
With `COc1c(C)cnc(Cn2nc3c4c(nc(N)nc42)SCC(CCn2ccnc2)=C3)c1C` [Example 137, 8-[2-(1H-Imidazol-1-yl)ethyl]-2-[(4-methoxy-3,5-dimethylpyridin-2-yl)methyl]-2,7-dihydro-6-thia-1,2,3,5-tetraazabenzo[cd]azulen-4-amine], the GI50 in test [1] (SK-BR-3, 72 h) was 67 nM; in test [2] (NCI-H460, 72 h), 200 nM. For the same molecule, the IC50 in test [3] stood at 950 nM.
As for `COc1c(C)cnc(Cn2nc3c4c(nc(N)nc42)SCC(CCN2CCCC2)=C3)c1C` [Example 141, 2-[(4-Methoxy-3,5-dimethylpyridin-2-yl)methyl]-8-(2-pyrrolidin-1-ylethyl)-2,7-dihydro-6-thia-1,2,3,5-tetraazabenzo[cd]azulen-4-amine], the GI50 in test [1] (SK-BR-3, 72 h) was determined as 41 nM; in test [2] (NCI-H460, 72 h), 260 nM. Moreover, the IC50 in test [3] stood at 1000 nM.
`COc1c(C)cnc(Cn2nc3c4c(nc(N)nc42)SCC(CCN2CCCCC2)=C3)c1C` [Example 145, 2-[(4-Methoxy-3,5-dimethylpyridin-2-yl)methyl]-8-(2-piperidin-1-ylethyl)-2,7-dihydro-6-thia-1,2,3,5-tetraazabenzo[cd]azulen-4-amine]: the GI50 worked out at 19 nM in test [1] (SK-BR-3, 72 h) and 45 nM in test [2] (NCI-H460, 72 h). For the same molecule, in test [3], the IC50 was determined as 890 nM.
For the molecule `COc1c(C)cnc(Cn2nc3c4c(nc(N)nc42)SC=C3)c1C` [Example 151, 2-[(4-Methoxy-3,5-dimethylpyridin-2-yl)methyl]-2H-6-thia-1,2,3,5-tetraazaacenaphthylen-4-amine], the GI50 in test [1] (SK-BR-3, 72 h) is 48 nM; in test [2] (NCI-H460, 72 h), 110 nM. Besides, in test [3], the IC50 is 890 nM.
Regarding `Nc1nc2c3c(nn(Cc4cc5ccccc5cn4)c3n1)CCS2` [Example 153], the GI50 in test [1] (SK-BR-3, MTT assay, 72 hours) was 2600 nM; in test [2] (NCI-H460, MTT assay, 72 hours), 5900 nM. The IC50 in test [3] came out at 1900 nM.
In the case of `COc1ccnc(Cn2nc3c4c(nc(N)nc42)SCC3)c1C` [Example 164, 2-[(4-Methoxy-3-methylpyridin-2-yl)methyl]-7,8-dihydro-2H-6-thia-1,2,3,5-tetraazaacenaphthylen-4-amine], the GI50 in test [1] (SK-BR-3, MTT assay, 72 hours) worked out at 410 nM; in test [2] (NCI-H460, MTT assay, 72 hours), 760 nM. Further, the IC50 in test [3] was found to be 970 nM.
Taken in the same sequence, the figures for `Cn1c(=O)c(Cn2nc3c4c(nc(N)nc42)SCC3)cc2ccccc21` [Example 165, 3-[(4-Amino-7,8-dihydro-2H-6-thia-1,2,3,5-tetraazaacenaphthylen-2-yl)methyl]-1-methylquinolin-2(1H)-one] were 6800 nM, 16000 nM and 2000 nM.
Regarding `Nc1nc2c3c(nn(Cc4ccc5c(c4)OCO5)c3n1)CCS2` [Example 167, 2-(1,3-Benzodioxol-5-ylmethyl)-7,8-dihydro-2H-6-thia-1,2,3,5-tetraazaacenaphthylen-4-amine], the GI50 in test [1] (SK-BR-3, MTT assay, 72 hours) amounted to 3300 nM; in test [2] (NCI-H460, MTT assay, 72 hours) it was 7300 nM. The IC50 in test [3] was 5400 nM.

Source of the values: patent US8158638B2, “Pyrazolopyrimidine derivative” (Daiichi Sankyo Company, Limited, priority 2006, dated 2012).
